CC(=CC(C)=Nc1c(C)cc(C)cc1C)Nc1c(C)cc(C)cc1C
solubility (mole fraction)
Conditions | 273.15 K | 278.15 K | 283.15 K | 288.15 K | 293.15 K | 298.15 K | 303.15 K
in THF | 0.215 | 0.233 | 0.253 | 0.273 | 0.295 | 0.317 | 0.346
in ethanol | 0.00285 | 0.00317 | 0.00373 | 0.00471 | 0.00561 | 0.00678 | 0.00849
in methanol | 0.0008 | 0.00094 | 0.00117 | 0.00137 | 0.00169 | 0.00205 | 0.00275
in n-hexane | 0.0989 | 0.106 | 0.124 | 0.148 | 0.181 | 0.216 | 0.255
in toluene | 0.189 | 0.211 | 0.236 | 0.264 | 0.295 | 0.33 | 0.372
